Source: publication PMC10796436, “Peptidyl nitroalkene inhibitors of main protease rationalized by computational and crystallographic investigations as antivirals against SARS-CoV-2” (Communications Chemistry, 2024)
Values joined by “and” are separate entries in the source; they are usually repeats but may differ in a detail not shown here. Equal entries are not always repeated. Where two headings read alike, the source gives them in different places.

Experiments:
M^pro [1] = molecular target: T1, M^pro (Severe acute respiratory syndrome coronavirus 2, UniProt P0DTD1); experiment: Binding to M^pro by ultracentrifugation (sedimentation method)
M^pro [2] = molecular target: T1, M^pro; type: biochemical; conditions: for Fluorescence reading (progress curve): triplicate wells
Description: Buffer: 20 mM Tris, 0.1 mM EDTA, 1 mM DTT, 200 mM NaCl pH = 7.5. For the dilution assay Nirmatrelvir[21] was used as a reversible control and LM188[54] as an irreversible control (Fig. 10).
The incubation was done at RT for 30 min in assay buffer. DMSO was used as a control. After incubation the Enzyme/Inhibitor (or DMSO) mixtures were diluted 100-fold in assay buffer.
The preincubation was done in assay buffer (20 mM Tris, 0.1 mM EDTA, 1 mM DTT, 200 mM NaCl, pH = 7.5), at RT for 30 min. After incubation the mixtures were diluted […]
proteolytic activity of the enzyme was measured as described for the enzymatic assays using the […]
activity was measured over 1 h.
Inhibition assay58. Trypsin: Enzyme: bovine trypsin purchased from Sigma-Aldrich (St. Louis, […]
Substrate: Cbz-FR-AMC purchased from Bachem (Bubendorf, Switzerland), [Substrate]: 40 µM […]
The activity against bovine trypsin was tested at 20 µM inhibitor concentration. […]

DNMT2 = molecular target: T2, DNMT2 (Homo sapiens, UniProt O14717); experiment: DNMT2 MST-displacement assay; type: binding; conditions: 100 μM
T2 sequence (O14717 1-391): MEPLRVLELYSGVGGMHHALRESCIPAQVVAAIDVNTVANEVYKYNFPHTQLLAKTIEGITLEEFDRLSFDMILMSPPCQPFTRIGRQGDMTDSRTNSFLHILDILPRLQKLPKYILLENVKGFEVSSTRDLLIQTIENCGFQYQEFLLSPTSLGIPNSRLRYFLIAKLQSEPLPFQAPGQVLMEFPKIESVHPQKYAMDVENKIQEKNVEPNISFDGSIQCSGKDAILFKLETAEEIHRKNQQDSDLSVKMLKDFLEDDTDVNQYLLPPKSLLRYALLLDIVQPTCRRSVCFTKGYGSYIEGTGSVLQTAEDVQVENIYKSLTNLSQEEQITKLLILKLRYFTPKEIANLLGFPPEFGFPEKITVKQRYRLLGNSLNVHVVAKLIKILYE
Description: DNMT2 MST-Displacement Assay. Assay was conducted according to literature 59. The average of quadruple measurements is depicted for two independent measurements each. The positive control was measured without DNMT2 to detect totally unbound FTAD, additionally Sinefungin (SFG), a literature described DNMT2 inhibitor, was used as a second positive control. SFG and FGA146 concentrations in this assay were 100 µM each.
Figure 26. Microscale Thermophoresis displacement experiment against DNMT2.
Other potential off-targets. A search in ChEMBL database for the term “nitroalkene” gave the following papers (excluded 2 synthesis papers using nitroalkenes as reactants) - https://doi.org/10.1021/acsmedchemlett.6b00276: Nitroalkenes against rhodesain and cruzain - https://doi.org/10.1021/jm900326c: Nitroalkene fatty acids against PPARγ - https://doi.org/10.1016/j.ejmech.2012.08.013: Nitroalkene as head group against minor groove binders (anti-infective)
Results one and three are irrelevant due to different organisms as targets. Restult 2 is unlikely to be important, as fatty acid structure deviates from peptidic structure of inhibitors under investigation […]

in vitro = conditions: human

With `COc1cccc2[nH]c(C(=O)N[C@@H](CC(C)C)C(=O)N[C@H](/C=C/[N+](=O)[O-])C[C@@H]3CCNC3=O)cc12` [FGA146] the “Fraction bound, Absorption” value (M^pro [1]; ligand concentration 0.1) was 0.00706, the “Fraction bound, Fluorescence” value (M^pro [1]; ligand concentration 0.1) was 0.00606 and the “Fraction bound, Absorption” value (M^pro [1]; ligand concentration 0.5) was 0.0199. For the same compound, the “Fraction bound, Fluorescence” value (M^pro [1]; ligand concentration 0.5) was 0.0299, the “Fraction bound, Absorption” value (M^pro [1]; ligand concentration 1) was 0.07275 and the “Fraction bound, Fluorescence” value (M^pro [1]; ligand concentration 1) was 0.06275. The “Fraction bound, Absorption” value (M^pro [1]; ligand concentration 5) was 0.3362, the “Fraction bound, Fluorescence” value (M^pro [1]; ligand concentration 5) was 0.3162 and the “Fraction bound, Absorption” value (M^pro [1]; ligand concentration 10) was 0.6468. The “Fraction bound, Fluorescence” value (M^pro [1]; ligand concentration 10) was 0.623, the “Fraction bound, Absorption” value (M^pro [1]; ligand concentration 25) was 0.9146 and the “Fraction bound, Fluorescence” value (M^pro [1]; ligand concentration 25) was 0.8218. For the same compound, the “Fraction bound, Absorption” value (M^pro [1]; ligand concentration 50) was 0.9678, the “Fraction bound, Fluorescence” value (M^pro [1]; ligand concentration 50) was 0.9995 and the “Fraction bound, Absorption” value (M^pro [1]; ligand concentration 100) was 1.004. The “Fraction bound, Fluorescence” value (M^pro [1]; ligand concentration 100) was 0.9916, the Kd (M^pro [1]; ultracentrifugation, 25 °C) was 7.28 ± 0.58 µM and the “Fluorescence reading (progress curve)” value (M^pro [2]; Time 180.071 s) was 702 and 681 and 686. For the same compound, the “Fluorescence reading (progress curve)” value (M^pro [2]; Time 210.081 s) was 743 and 723 and 735, the “Fluorescence reading (progress curve)” value (M^pro [2]; Time 240.095 s) was 788 and 769 and 779 and the “Fluorescence reading (progress curve)” value (M^pro [2]; Time 270.113 s) was 832 and 815 and 822. For the same compound, the “Fluorescence reading (progress curve)” value (M^pro [2]; Time 300.118 s) was 871 and 859 and 876, the “Fluorescence reading (progress curve)” value (M^pro [2]; Time 330.126 s) was 913 and 895 and 906 and the “Fluorescence reading (progress curve)” value (M^pro [2]; Time 360.134 s) was 943 and 930 and 957. For the same compound, the “Fluorescence reading (progress curve)” value (M^pro [2]; Time 390.141 s) was 989 and 974 and 988, the “Fluorescence reading (progress curve)” value (M^pro [2]; Time 420.149 s) was 1026 and 1011 and 1031 and the “Fluorescence reading (progress curve)” value (M^pro [2]; Time 450.157 s) was 1063 and 1040. For the same compound, the “Fluorescence reading (progress curve)” value (M^pro [2]; Time 2881.2 s) was 2210 and 2162 and 2202, the “Fluorescence reading (progress curve)” value (M^pro [2]; Time 2911.21 s) was 2205 and 2168 and 2199 and the “Fluorescence reading (progress curve)” value (M^pro [2]; Time 2941.22 s) was 2214 and 2173 and 2206. The “Fluorescence reading (progress curve)” value (M^pro [2]; Time 2971.24 s) was 2207 and 2185 and 2213, the “Fluorescence reading (progress curve)” value (M^pro [2]; Time 3001.25 s) was 2222 and 2185 and 2232 and the “Fluorescence reading (progress curve)” value (M^pro [2]; Time 3031.26 s) was 2246 and 2178 and 2225. For the same compound, the “Fluorescence reading (progress curve)” value (M^pro [2]; Time 3061.27 s) was 2233 and 2191 and 2237, the “Fluorescence reading (progress curve)” value (M^pro [2]; Time 3091.28 s) was 2243 and 2199 and 2235 and the “Fluorescence reading (progress curve)” value (M^pro [2]; Time 3121.29 s) was 2244 and 2187 and 2224. The “Fluorescence reading (progress curve)” value (M^pro [2]; Time 3151.3 s) was 2247 and 2204 and 2241, the “Fluorescence reading (progress curve)” value (M^pro [2]; Time 3181.31 s) was 2224 and 2196 and 2245 and the “Fluorescence reading (progress curve)” value (M^pro [2]; Time 3211.32 s) was 2250 and 2188 and 2275. For the same compound, the “Fluorescence reading (progress curve)” value (M^pro [2]; Time 3241.33 s) was 2234 and 2200, the “Fluorescence reading (progress curve)” value (M^pro [2]; Time 3271.34 s) was 2236 and 2195 and 2245 and the “Fluorescence reading (progress curve)” value (M^pro [2]; Time 3301.35 s) was 2233 and 2201 and 2238. For the same compound, the “Fluorescence reading (progress curve)” value (M^pro [2]; Time 3331.36 s) was 2246 and 2198 and 2261, the “Fluorescence reading (progress curve)” value (M^pro [2]; Time 3361.37 s) was 2261 and 2203 and 2250 and the “Fluorescence reading (progress curve)” value (M^pro [2]; Time 3391.39 s) was 2251 and 2199 and 2248. For the same compound, the “Fluorescence reading (progress curve)” value (M^pro [2]; Time 3421.39 s) was 2261 and 2206 and 2226, the “Fluorescence reading (progress curve)” value (M^pro [2]; Time 3451.41 s) was 2253 and 2215 and 2257 and the “Fluorescence reading (progress curve)” value (M^pro [2]; Time 3481.42 s) was 2274 and 2215 and 2263. For the same compound, the “Fluorescence reading (progress curve)” value (M^pro [2]; Time 3511.43 s) was 2266 and 2207 and 2242, the “Fluorescence reading (progress curve)” value (M^pro [2]; Time 3541.44 s) was 2263 and 2215 and 2260 and the “Fluorescence reading (progress curve)” value (M^pro [2]; Time 3571.45 s) was 2254 and 2212 and 2248. For the same compound, the “recovery of M^pro activity after 100-fold dilution” value (M^pro [2]; preincubation 30 min) was “seems to recover over time” and the “displacement of FTAD from DNMT2” value (DNMT2) was “non-binder”.

With `CC(C)C[C@H](NC(=O)OCc1ccccc1)C(=O)N[C@H](/C=C/[N+](=O)[O-])C[C@@H]1CCNC1=O` [FGA147] the CC50 (in vitro) was over 100 µM.
